{
  "source": "patent US10934529B2",
  "about": "“Three dimensional hydrogels for culturing organoids” (Ecole Polytechnique Fèdèrale de Lausanne, priority 2015, dated 2021)",
  "format_in_all_cases": "cell-based, mouse",
  "key": {"[1]": {"tested_on": "intestinal stem cells (ISCs)", "experiment": "ISC colony formation efficiency / ISC expansion in hydrogels", "settings": "for Expansion of Lgr5+ cells: supplement to standard intestinal organoid growth medium, PEG-RGD culture; for ISC colony formation, ECM component in combination with RGD / ISC colony formation / self-renewal, ECM component alone: component in soft (300 Pa) or stiff (1300 Pa) PEG matrices; for ISC colony formation / self-renewal, ECM component alone: without RGD", "description": "Freshly isolated crypts or single cells from dissociated colonies were added to the Matrigel or hydrogels precursor solution and cast in 20-μL droplets at the bottom of wells in 24-well plate. […] For single cell culture, thiazovivin (2.5 μM; Stemgent) and Jagged-1 peptide ([…]; Anaspec) was included in the medium during the first two days. Broad spectrum protease inhibitor, GM6001, was added to the medium while embedding the cells in PEG hydrogels. Every two days the growth factors were replenished and the full medium was changed.\n(§1) To quantify the colony formation efficiency of single embedded ISCs, phase contrast z-stacks spanning the entire thickness of the cell-laden Matrigel or PEG gels were collected (Zeiss Axio Observer Z1) at 5 different locations within the gels. The Cell Counter plugin in ImageJ (NIH) was used to quantify the fraction of cells which had formed colonies at day 4 after seeding. To assess the viability of intestinal tissue fragments embedded in PEG, phase contrast images of the entire gel were collected. The fraction of viable tissues was estimated based upon the epithelial morphology: tissues that featured an epithelial monolayer surrounding a central lumen after 24 h of embedding were deemed viable."}, "Lgr5-EGFP": {"tested_on": "Lgr5-EGFP", "experiment": "Lgr5-EGFP reporter expression in colonies and organoids", "settings": "cultured in the presence of collagen-I", "excerpt": "Lgr5-EGFP was expressed in the expected pattern, localized to the crypt-like buds of the organoids (FIG. 3B). […] Stem cell differentiation into functional cell types was confirmed by immunofluorescence analysis. Staining for lysozyme verified the presence of Paneth cells in the expected locations, interspersed with Lgr5+ stem cells in the characteristic checkerboard pattern (FIG. 3F). The organoids therefore retained the normal characteristics of epithelial cell organoids during culture in the hydrogels.\nIntestinal crypts were extracted from 5-10 week old heterozygous Lgr5-EGFP-IRES-CreERT2 mice (Jackson Laboratory), following animal experimentation protocols prescribed by EPFL and FELASA."}, "ISC colonies": {"tested_on": "ISC colonies", "experiment": "ISC colony differentiation and intestinal organoid formation", "settings": "for ISC colony differentiation and organoid formation in soft PEG-RGD gels supplied with an ECM component: colonies grown in 1 kPa PEG-RGD, transferred into soft F-PEG-RGD, differentiation conditions; for Organoid formation from ISCs grown in soft laminin-containing gels: after switching to organoid formation conditions", "description": "To induce stem cell differentiation and organoid formation, the medium was removed, the gels were incubated in PBS (1 hr, […]) to remove residual CHIR99021 and valproic acid, and fresh medium containing EGF, Noggin and Respondin was added. In general, growth factors were replenished every two days, with full medium change taking place every four days.\nIntestinal organoids embedded in Matrigel or PEG were fixed with 4% paraformaldehyde (PFA) in PBS (30 min, RT). The fixation process typically led to complete degradation of the Matrigel. […] Following resuspension in water, the organoids were spread on glass slides and allowed to attach by drying. Attached organoids were rehydrated by adding PBS. Following fixation, organoids embedded in PEG or spread on glass were permeabilized with 0.2% Triton X-100 in PBS (1 h, RT) and blocked (10% goat serum in PBS containing 0.01% Triton X-100) for at least 2 h. Samples were subsequently incubated with blocking buffer-dissolved phalloidin-Alexa 546 (Invitrogen) and primary antibodies against lysozyme (1:50; Thermo Scientific) or mucin-2 (1:25; Santa Cruz) (overnight, 4° C.). After washing with PBS for 3 h (during which PBS was replaced every hour), samples were incubated with secondary antibody (Alexa 647) organoids were imaged in epifluorescence (Zeiss Axio Observer Z1) or confocal (Zeiss LSM 710) mode."}, "[2]": {"tested_on": "freshly-isolated intestinal crypts", "experiment": "Survival and morphogenesis of freshly isolated intestinal crypts embedded in 3D matrices", "settings": "component presented alongside RGD in PEG-RGD hydrogel", "excerpt": "Matrigel is currently used to grow epithelial organoids. To address the question of whether Matrigel serves as merely a passive 3D scaffold, providing physical support, or actively influences organoid formation by presenting essential cues, freshly-isolated intestinal crypts were embedded into enzymatically crosslinked PEG hydrogels, which are soft and hydrated and thus mimic the basic physical properties of Matrigel without providing any biochemical signals.\nIntestinal crypt isolation: Mouse intestine crypts were isolated following procedures known in the art. Briefly, the proximal part of the intestine was harvested, opened longitudinally and washed with ice-cold PBS. The luminal side of the intestine was scraped using a glass slide to remove luminal content and villous structures. After washing with ice-cold PBS again, the intestine was cut into 2-4 mm pieces with scissors. The pieces were transferred to a 50 ml Falcon tube and further washed with cold PBS (5-10 times) with gentle vortexing. […]\nTo quantify the colony formation efficiency of single embedded ISCs, phase contrast z-stacks spanning the entire thickness of the cell-laden Matrigel or PEG gels were collected (Zeiss Axio Observer Z1) at 5 different locations within the gels. The Cell Counter plugin in ImageJ (NIH) was used to quantify the fraction of cells which had formed colonies at day 4 after seeding. […]"}, "intestinal organoids": {"tested_on": "intestinal organoids", "experiment": "Viability, growth and morphogenesis of intestinal organoids / tissue fragments in hydrogels", "excerpt": "To identify a short sequence that supports intestinal cell survival, a library of soft (G′=200 Pa) hydrogels was created, in which specific binding sequences from the laminin al subunit (Table 1) were tethered to the PEG backbone.\nas §1"}},
  "note": "“Also recorded” adds a separate entry of the source.",
  "data": [
    {"compound": "Cc1c[nH]c(-c2cnc(NCCNc3ccc(C#N)cn3)nc2-c2ccc(Cl)cc2Cl)n1", "note": "[CHIR99021, reference compound]", "values": [
      {"measurement": "Expansion of Lgr5+ cells", "setting": "[1]", "result": "increased"}
    ]},
    {"compound": "CNC(=O)[C@H](Cc1c[nH]c2ccccc12)NC(=O)[C@@H](CC(=O)NO)CC(C)C", "note": "[GM6001, reference compound]", "values": [
      {"measurement": "Colony formation efficiency on blocking MMP activity, high matrix stiffness", "setting": "[1]; printed: within non-degradable gels, high stiffness", "result": "reduced it to levels observed in non-degradable gels"},
      {"measurement": "Colony formation efficiency on blocking MMP activity, low matrix stiffness", "setting": "[1]; printed: within non-degradable gels, low stiffness", "result": "did not alter colony formation efficiency"}
    ]},
    {"compound": "Cc1ccc2c(c1)C(=O)C1(O)CCN(c3ccccc3)C1=N2", "note": "(stereo not drawn) [blebbistatin, reference compound]", "values": [
      {"measurement": "Effect of blocking myosin-mediated contractility on colony formation efficiency", "setting": "[1]; PEG-RGD matrices of varying stiffness", "result": "abolished the stiffness-induced increase in colony formation efficiency"}
    ]},
    {"compound": "CCCC(CCC)C(=O)O", "note": "[valproic acid, reference compound]", "values": [
      {"measurement": "Expansion of Lgr5+ cells", "setting": "[1]", "result": "increased"}
    ]},
    {"compound": "Arginine-Glycine-Aspartic Acid [RGD, reference compound]", "values": [
      {"measurement": "Shear modulus at which ISC expansion / colony formation efficiency is optimal", "setting": "[1]; RGD-containing gels of varying stiffness", "result": 1.3, "unit": "kPa"},
      {"measurement": "RGD concentration at which ISC colony formation efficiency reached a plateau", "setting": "[1]; TG-PEG-RGD, varying RGD", "result": "approximately 500 μM"}
    ]},
    {"compound": "Collagen-I: ECM component incorporated in PEG hydrogels", "values": [
      {"measurement": "ISC colony formation, ECM component in combination with RGD", "setting": "[1]", "result": "did not have a striking effect"},
      {"measurement": "ISC morphology", "setting": "[1]; soft hydrogels with collagen-I and RGD", "result": "adopted a spindle-like morphology"},
      {"measurement": "Lgr5-EGFP in viable cells and colonies", "setting": "Lgr5-EGFP", "result": "largely devoid of Lgr5-EGFP"}
    ]},
    {"compound": "Fibronectin", "values": [
      {"measurement": "ISC colony differentiation and organoid formation in soft PEG-RGD gels supplied with an ECM component", "setting": "ISC colonies", "result": "failed to support ISC colony differentiation and organoid formation"},
      {"measurement": "ISC colony formation, ECM component in combination with RGD", "setting": "[1]", "result": "no added effect"},
      {"measurement": "ISC colony formation / self-renewal, ECM component alone", "setting": "[1]", "result": "appreciable colony formation only in stiff matrices"}
    ]},
    {"compound": "Hyaluronic acid [reference compound]", "values": [
      {"measurement": "Crypt viability", "setting": "[2]", "result": "synergistic increase in crypt viability"},
      {"measurement": "ISC colony differentiation and organoid formation in soft PEG-RGD gels supplied with an ECM component", "setting": "ISC colonies", "result": "failed to support ISC colony differentiation and organoid formation"},
      {"measurement": "ISC colony formation, ECM component in combination with RGD", "setting": "[1]", "result": "did not appear to influence"}
    ]},
    {"compound": "Laminin-111: extracellular matrix glycoprotein, heterotrimer of α, β and γ chain", "values": [
      {"measurement": "Organoid formation from ISCs grown in soft laminin-containing gels", "setting": "ISC colonies; listed as laminin", "result": "give rise to organoids"},
      {"measurement": "Organoid formation from ISCs grown in soft laminin-containing gels", "setting": "ISC colonies; listed as laminin-111", "result": "a small portion of the ISC colonies gave rise to intestinal organoids"},
      {"measurement": "ISC colony differentiation and organoid formation in soft PEG-RGD gels supplied with an ECM component", "setting": "ISC colonies", "result": "pronounced morphogenesis and organoid formation; also recorded: required for organoid formation"},
      {"measurement": "ISC colony formation, ECM component in combination with RGD", "setting": "[1]", "result": "increased colony formation efficiency"},
      {"measurement": "ISC colony formation / self-renewal, ECM component alone", "setting": "[1]", "result": "effectively supported colony formation in soft matrices; also recorded: supports ISC colony formation within soft matrices"},
      {"measurement": "Stiffness at which ISC colony formation efficiency peaks", "setting": "[1]; laminin-containing gels", "result": 700, "unit": "Pa"},
      {"measurement": "ISC colony formation", "setting": "[1]; soft hydrogels containing both RGD and laminin-111", "result": "30-50%"},
      {"measurement": "Efficiency in inducing ISC colony formation compared with RGD", "setting": "[1]; soft, 300 Pa hydrogel", "result": "significantly more efficient"}
    ]},
    {"compound": "Perlecan: ECM component incorporated in PEG hydrogels", "values": [
      {"measurement": "ISC colony differentiation and organoid formation in soft PEG-RGD gels supplied with an ECM component", "setting": "ISC colonies", "result": "failed to support ISC colony differentiation and organoid formation"},
      {"measurement": "ISC colony formation, ECM component in combination with RGD", "setting": "[1]", "result": "starkly increased colony formation efficiency"},
      {"measurement": "ISC colony formation / self-renewal, ECM component alone", "setting": "[1]", "result": "did not alter ISC self-renewal"}
    ]},
    {"compound": "RKRLQVQLSIRT [AG73, synthetic peptide derived from the globular domain of the laminin al chain]", "values": [
      {"measurement": "Crypt viability", "setting": "[2]", "result": "synergistic increase in crypt viability"},
      {"measurement": "Organoid viability", "setting": "intestinal organoids; soft (G'=200 Pa) PEG hydrogels with tethered laminin a1 subunit binding sequences", "result": "significantly enhanced organoid viability"},
      {"measurement": "Effect of amount of tethered AG73 on organoid viability and growth", "setting": "intestinal organoids; varying amount of AG73 tethered to PEG gel backbone", "result": "dose-dependent effect; also recorded: concentration-dependent"},
      {"measurement": "ISC colony differentiation and organoid formation in soft PEG-RGD gels supplied with an ECM component", "setting": "ISC colonies", "result": "showed some early signs of differentiation and morphogenesis; also recorded: failed to support ISC colony differentiation and organoid formation"}
    ]},
    {"compound": "laminin-511: ECM component incorporated in PEG hydrogels", "values": [
      {"measurement": "ISC colony formation, ECM component in combination with RGD", "setting": "[1]", "result": "no effect"},
      {"measurement": "ISC colony formation / self-renewal, ECM component alone", "setting": "[1]", "result": "no effect"}
    ]}
  ]
}
